# Legend:
# [1] = Sensitivity of suxamethonium to oxidizing conditions; assay type: physicochemical
# [2] = Degradation of suxamethonium depending on pH; assay type: physicochemical; settings: pH 5.0 vs pH 3.5
smiles,measurement,setting,value
C[N+](C)(C)CCOC(=O)CCC(=O)OCC[N+](C)(C)C [suxamethonium],sensitivity to oxidizing conditions,[1],not sensitive to oxidizing conditions
same,degradation depending on pH,[2],faster at pH 5.0 than at pH 3.5

# — patent publication US20230233453A1, “SUXAMETHONIUM COMPOSITION AND PREFILLED SYRINGE THEREOF” (LABORATOIRE AGUETTANT, priority 2020, published 2023)
